“And” between values parts separate entries of the source, which are not always exact repeats. Equal entries are not always repeated. Toxic doses and inconclusive results are not listed.
Test system: CD2F1 mice, ip reticulum cell sarcoma, survival T/C
Test: NCI In Vivo Anticancer Drug Screen. Data for tumor model Reticulum Cell Sarcoma (Kelley Mouse) (intraperitoneal) in CD2F1 (CDF1) mice
Conditions: endpoint: median survival time, schedule: Q01DX010 (ip), higher = longer survival
Procedure: The antitumor activity of compounds was measured in mice bearing transplantable tumors. Survival or tumor size were measured and the results are expressed as the measurement made in the treated group (T) divided by the measurement made in the vehicle treated control group (C). The tumor model used in this assay is Reticulum Cell Sarcoma (Kelley Mouse) (intraperitoneal) in CD2F1 (CDF1) mice

[1] = dose: 6.25 mg/kg/injection, vehicle: saline
[2] = dose: 12.5 mg/kg/injection, vehicle: saline
[3] = dose: 25.0 mg/kg/injection, vehicle: saline
[4] = dose: 50.0 mg/kg/injection, vehicle: saline
[5] = dose: 100.0 mg/kg/injection, vehicle: saline
[6] = dose: 8.0 mg/kg/injection, vehicle: saline
[7] = dose: 62.5 mg/kg/injection, vehicle: saline
[8] = dose: 125.0 mg/kg/injection, vehicle: saline
[9] = dose: 250.0 mg/kg/injection, vehicle: saline
[10] = dose: 15.6 mg/kg/injection, vehicle: saline

Nc1nc(F)nc2c1ncn2C1OC(CO)C(O)C1O (stereo not drawn)
T/C (dose: 0.25 mg/kg/injection, vehicle: saline): 100 % of control
T/C (dose: 0.5 mg/kg/injection, vehicle: saline): 100 % of control and 105 % of control
T/C (dose: 1.0 mg/kg/injection, vehicle: saline): 91 % of control and 103 % of control
T/C (dose: 2.0 mg/kg/injection, vehicle: saline): 100 % of control and 105 % of control
T/C (dose: 4.0 mg/kg/injection, vehicle: saline): 88 % of control

CCCNc1ncnc2[nH]ncc12
T/C (dose: 3.13 mg/kg/injection, vehicle: saline): 97 % of control and 100 % of control
T/C [1]: 97 % of control and 100 % of control
T/C [2]: 97 % of control and 105 % of control
T/C [3]: 100 % of control and 102 % of control

CSc1ncnc2nc[nH]c12
T/C [3]: 100 % of control
T/C [4]: 100 % of control
T/C [5]: 93 % of control
T/C (dose: 200.0 mg/kg/injection, vehicle: saline): 100 % of control

O=C(Nc1ccc(C2=NCCCN2)cc1)c1ccc(NC(=O)c2ccc(C3=NCCCN3)cc2)cc1
T/C (dose: 1.0 mg/kg/injection, vehicle: other): 117 % of control
T/C (dose: 2.0 mg/kg/injection, vehicle: other): 208 % of control and 222 % of control
T/C (dose: 4.0 mg/kg/injection, vehicle: other): 177 % of control
T/C (dose: 8.0 mg/kg/injection, vehicle: other): 122 % of control

CN(C)/N=N/c1nc[nH]c1C(N)=O
T/C [4]: 100 % of control
T/C [5]: 107 % of control and 120 % of control
T/C (dose: 400.0 mg/kg/injection, vehicle: saline): 100 % of control

NC(CCSCc1ccc(N(CCCl)CCCl)cc1)C(=O)O (stereo not drawn)
T/C (dose: 4.5 mg/kg/injection, vehicle: saline): 100 % of control
T/C (dose: 9.0 mg/kg/injection, vehicle: saline): 106 % of control and 117 % of control
T/C (dose: 18.0 mg/kg/injection, vehicle: saline): 106 % of control and 117 % of control
T/C (dose: 36.0 mg/kg/injection, vehicle: saline): 110 % of control and 111 % of control

O=C(Nc1ccc(C2=NCCN2)cc1)c1cccc(C(=O)Nc2ccc(C3=NCCN3)cc2)c1
T/C [6]: 121 % of control
T/C (dose: 16.0 mg/kg/injection, vehicle: saline): 121 % of control
T/C (dose: 32.0 mg/kg/injection, vehicle: saline): 157 % of control
T/C (dose: 64.0 mg/kg/injection, vehicle: saline): 186 % of control and 210 % of control

O=c1cn[nH]c(=O)[nH]1
T/C [7]: 92 % of control and 100 % of control
T/C [8]: 95 % of control and 100 % of control
T/C [9]: 97 % of control
T/C (dose: 500.0 mg/kg/injection, vehicle: saline): 90 % of control and 102 % of control

Nc1c(Br)cc2c(c1Br)Cc1cc([N+](=O)[O-])ccc1-2
T/C [10]: 100 % of control
T/C (dose: 31.3 mg/kg/injection, vehicle: saline): 100 % of control
T/C [7]: 88 % of control and 103 % of control
T/C [8]: 94 % of control and 100 % of control

CCN(CCNc1ccc(C)c2sc3cc(Cl)ccc3c(=O)c12)CC(C)O (stereo not drawn)
T/C (dose: 7.8 mg/kg/injection, vehicle: saline): 94 % of control
T/C [10]: 94 % of control
T/C [7]: 94 % of control
T/C [8]: 88 % of control
T/C [9]: 88 % of control

Nc1nc(N)c2nc(CNc3ccc(C(=O)NC(CCC(=O)O)C(=O)O)cc3)cnc2n1 (stereo not drawn)
T/C (dose: 25.0 micrograms/kg/injection, vehicle: other): 105 % of control and 113 % of control
T/C (dose: 50.0 micrograms/kg/injection, vehicle: other): 107 % of control and 121 % of control
T/C (dose: 100.0 micrograms/kg/injection, vehicle: other): 110 % of control and 121 % of control
T/C (dose: 200.0 micrograms/kg/injection, vehicle: other): 94 % of control and 113 % of control

O=C(O)CCCc1ccc(N(CCCl)CCCl)cc1
T/C [1]: 103 % of control
T/C [2]: 106 % of control

O=C(Nc1ccc(C2=NCCN2)cc1)c1ccc(C(=O)Nc2ccc(C3=NCCN3)cc2)c([N+](=O)[O-])c1
T/C (dose: 6.0 mg/kg/injection, vehicle: saline): 168 % of control
T/C [6]: 255 % of control and 297 % of control
T/C (dose: 12.0 mg/kg/injection, vehicle: saline): 281 % of control and 300 % of control

CS(=O)(=O)OCCCl
T/C (dose: 18.8 mg/kg/injection, vehicle: saline): 103 % of control
T/C (dose: 37.5 mg/kg/injection, vehicle: saline): 106 % of control and 115 % of control
T/C (dose: 75.0 mg/kg/injection, vehicle: saline): 100 % of control
